According to patent US20010004643A1, “Pharmaceutical composition with sotalol combination and their use in treatment of cardiac ailments” (priority 1999, published 2001):
Marks after values point to notes of the source that are not given here.

Legend:
[1] = tested on: beta adrenergic blockade, isolated right auricle preparation of rabbit; experiment: Beta blocking potency (pA2 against isoprenaline) in isolated rabbit right auricle; settings: isoprenaline chronotropic response, Schild's plot
Method: Estimation of the beta blockade of various ratios of d- and l- isomers of sotalol was carried out in the isolated right auricle preparation of rabbit. The spontaneously beating right atrium was dissected and mounted in a 20 ml tissue bath. The resting tension on the atria was set at 1 g. The contractions were recorded using a force displacement transducer. The spontaneous contractions of the right atria were recorded isometrically and the heart rate was obtained as a derived parameter using a ratemeter that gave the output in beats per minute. Six different ratios of d and l isomers were investigated (1:1, 2:1, 3:1, 4:1, 5:1 and 1:0). Dose-response-curves (DRC) for isoprenaline in the isolated atria, using the chronotropic response were determined by cumulative addition of isoprenaline. The pA2 values of each of the ratios were estimated using the classical Schild's plot (Schild, 1957) and the values are shown in Table 1.

[2] = tested on: ouabain induced arrhythmia (VT, VF, mortality); experiment: Ouabain induced arrhythmia model in guinea pig; format: in vivo; settings: for actual incidence of mortality (value in parenthesis): 60 min; for actual incidence of mortality (value in parenthesis) / actual incidence of VF (value in parenthesis) / actual incidence of VT (value in parenthesis): number of animals of the group; for % INCIDENCE OF MORTALITY: mortality at 60 min; for deaths due to conduction block (60 min), actual incidence (value in parenthesis) / deaths due to tachyarrhythmia (60 min), actual incidence (value in parenthesis): number of animals; for % INCIDENCE OF VF / % INCIDENCE OF VT: ouabain 240 μg/kg in three doses, observed one hour; for DEATHS DUE TO CONDUCTION BLOCK (60 MIN) Percentage / DEATHS DUE TO TACHYARRHYTHMIA (60 MIN) Percentage: percentage deaths out of total mortality
From the text: Method: Guinea pigs (Dunken Hartley) of either sex weighing between 400 and 500 g were used for the study. The animals were anesthetized with urethane (1.25 g/kg. i.p.). The left common carotid artery and left jugular vein were cannulated for arterial blood pressure monitoring and intravenous access respectively. Lead II electrocardiogram, arterial blood pressure, mean arterial blood pressure (MABP), heart rate were monitored throughout the experiment.
After initial surgical preparations and allowing 30 minutes for the animal to stabilise the first dose of ouabain (90 μg/kg) was administered over a period of one minute. After the interval of thirty minutes, second dose of ouabain (60 μg/kg) was administered over a period of one minute. One minute after this dose, 0.5 ml saline (in control experiments) was administered over a period of one minute. After an interval of 10 minutes a third dose of ouabain (90 μg/kg) was administered over a period of one minute. […] The test compounds were administered to animals in test group in place of saline to evaluate their antiarrhythmic potential. From the ECG recordings, the incidence of VT, VF and mortality were recorded. The doses of ratios of sotalol isomers studied were 0.1, 0.5 and 2.5 mg/kg.
Interpretation of ECG recordings: Minor disturbance in rhythm was not considered while evaluating ventricular tachyarrhythmias. A run of more than 3 ventricular ectopic beats having wide QRS complexes associated with partial haemodynamic collapse was considered as Ventricular Tachycardia (VT). Total morphological irregularity of repetitive complexes for at least six cycles associated with complete haemodynamic collapse was considered as Ventricular Fibrillation (VF). Successful arrhythmia protection was defined as no occurrence of VT and VF from the injection of saline/test drug till the end of the experiment.
Statistics: Chi square test with continuity correction at 95% confidence limit was applied to find out the statistical significance between control and test groups for incidence of VT, VF and mortality. Whenever, any of the value in a cell was less than 5, Fischer's exact probability test was used.
Results: Different ratios of sotalol in the dose range from 0.02 mg/kg to 12.5 mg/kg were studied in individual groups of animals. In all 18 groups were studied and at least 6 animals were used in each group. In control animals ouabain 240 μg/kg in three divided doses induced reproducible ventricular tachyarrhythmias in guinea pigs. It was observed that ventricular arrhythmias appeared after the administration of the third dose. Guinea pigs which responded early i.e. before or within 1 min. of administration of the second dose, were considered early responders and were not included in the study. […] In the study, control experiments were carried out randomly interspersed in test groups. Among the 42 control animals the incidence of VT was 81%, incidence of VF was 71.4% and the incidence of mortality at 60 minutes was 61.9%.

Row | SMILES | actual incidence of mortality (value in parenthesis) ([2]; 0.5 mg/kg) | % INCIDENCE OF MORTALITY ([2]; 0.5 mg/kg) | deaths due to conduction block (60 min), actual incidence (value in parenthesis) ([2]; 0.5 mg/kg) | deaths due to tachyarrhythmia (60 min), actual incidence (value in parenthesis) ([2]; 0.5 mg/kg) | actual incidence of VF (value in parenthesis) ([2]; 0.5 mg/kg) | actual incidence of VT (value in parenthesis) ([2]; 0.5 mg/kg) | % INCIDENCE OF VF ([2]; 0.5 mg/kg) | % INCIDENCE OF VT ([2]; 0.5 mg/kg) | DEATHS DUE TO CONDUCTION BLOCK (60 MIN) Percentage ([2]; 0.5 mg/kg) | DEATHS DUE TO TACHYARRHYTHMIA (60 MIN) Percentage ([2]; 0.5 mg/kg) | actual incidence of mortality (value in parenthesis) ([2]; 2.5 mg/kg) | % INCIDENCE OF MORTALITY ([2]; 2.5 mg/kg) | deaths due to conduction block (60 min), actual incidence (value in parenthesis) ([2]; 2.5 mg/kg) | deaths due to tachyarrhythmia (60 min), actual incidence (value in parenthesis) ([2]; 2.5 mg/kg) | actual incidence of VF (value in parenthesis) ([2]; 2.5 mg/kg) | actual incidence of VT (value in parenthesis) ([2]; 2.5 mg/kg) | % INCIDENCE OF VF ([2]; 2.5 mg/kg) | % INCIDENCE OF VT ([2]; 2.5 mg/kg) | DEATHS DUE TO CONDUCTION BLOCK (60 MIN) Percentage ([2]; 2.5 mg/kg) | DEATHS DUE TO TACHYARRHYTHMIA (60 MIN) Percentage ([2]; 2.5 mg/kg) | other results
1 | CC(C)NCC(O)c1ccc(NS(C)(=O)=O)cc1 (stereo not shown) [3:1 RATIO, N-[4-[1-hydroxy-2-[(1-methylethyl)amino]ethyl]phenyl] methane sulfonamide] | (3) | 37.5% | (3) | (0)* | (2) | (3)* | 25.0% | 37.5% | 100.0% | 00.0% | (2) | 33.3% | (2) | (0) | (0)* | (0)* | 00.0% | 00.0% | 100.0% | 00.0% | pA2 Mean ([1]; listed as 3:1): 6.15; actual incidence of mortality (value in parenthesis) ([2]; 0.1 mg/kg): (2); % INCIDENCE OF MORTALITY ([2]; 0.1 mg/kg): 33.3%; deaths due to conduction block (60 min), actual incidence (value in parenthesis) ([2]; 0.1 mg/kg): (1); deaths due to tachyarrhythmia (60 min), actual incidence (value in parenthesis) ([2]; 0.1 mg/kg): (1); actual incidence of VF (value in parenthesis) ([2]; 0.1 mg/kg): (4); actual incidence of VT (value in parenthesis) ([2]; 0.1 mg/kg): (4); % INCIDENCE OF VF ([2]; 0.1 mg/kg): 66.6%; % INCIDENCE OF VT ([2]; 0.1 mg/kg): 66.6%; DEATHS DUE TO CONDUCTION BLOCK (60 MIN) Percentage ([2]; 0.1 mg/kg): 50.0%; DEATHS DUE TO TACHYARRHYTHMIA (60 MIN) Percentage ([2]; 0.1 mg/kg): 50.0%; protection against ouabain induced VT ([2]; 0.5 mg/kg, listed as 3:1 ratio (d:l)): showed protection; protection against arrhythmias (VT and VF) ([2]; 2.5 mg/kg): protected; protection from deaths due to tachyarrhythmias ([2]; 2.5 mg/kg): completely protected; protection against arrhythmias (VT and VF) ([2]; 2.5 mg/kg, listed as 3:1): complete protection; % INCIDENCE OF MORTALITY ([2]; 2.5 mg/kg, listed as 3:1 ratio): 33.3%; mortality ([2]; 0.5 and 2.5 mg/kg dose): low; dose at which complete protection against VT was observed ([2]; guinea pig, in vivo, listed as 3:1 ratio (d:l)): 2.5 mg/kg; cause of deaths ([2]; no dose stated): due to conduction abnormalities; mortality compared with control groups ([2]; no dose stated): less than that of control groups
2 | CC(C)NCC(O)c1ccc(NS(C)(=O)=O)cc1 (stereo not drawn) [d-SOTALOL, N-[4-[1-hydroxy-2-[(1-methylethyl)amino]ethyl]phenyl] methane sulfonamide] | (5) | 50.0% | (1) | (4) | (7) | (7) | 70.0% | 70.0% | 20.0% | 80.0% | (6) | 66.6% | (3) | (3) | (6) | (7) | 66.6% | 77.7% | 50.0% | 50.0% | pA2 Mean ([1]; listed as 1:0): 5.44; pA2 Mean ([1]; listed as pure d-isomer of sotalol): 5.44; actual incidence of mortality (value in parenthesis) ([2]; 12.5 mg/kg): (6); % INCIDENCE OF MORTALITY ([2]; 12.5 mg/kg): 100.0%; % INCIDENCE OF MORTALITY ([2]; 12.5 mg/kg, listed as d-Sotalol): 100%; deaths due to conduction block (60 min), actual incidence (value in parenthesis) ([2]; 12.5 mg/kg): (3); deaths due to tachyarrhythmia (60 min), actual incidence (value in parenthesis) ([2]; 12.5 mg/kg): (3); actual incidence of VF (value in parenthesis) ([2]; 12.5 mg/kg): (3); actual incidence of VT (value in parenthesis) ([2]; 12.5 mg/kg): (3); % INCIDENCE OF VF ([2]; 12.5 mg/kg): 50.0%; % INCIDENCE OF VT ([2]; 12.5 mg/kg): 50.0%; DEATHS DUE TO CONDUCTION BLOCK (60 MIN) Percentage ([2]; 12.5 mg/kg): 50.0%; DEATHS DUE TO TACHYARRHYTHMIA (60 MIN) Percentage ([2]; 12.5 mg/kg): 50.0%; cause of deaths ([2]; doses 2.5 mg/kg and 12.5 mg/kg): equally due to conduction abnormality as well as tachyarrhythmias; protection against ouabain induced VF ([2]; no dose stated): ineffective; protection against ouabain induced VT ([2]; no dose stated): ineffective
